Reference: US12649748B2, “Wee1 inhibitor and use thereof” (JIANGSU TASLY DIYI PHARMACEUTICAL CO., LTD., priority 2021, dated 2026)
Converted amounts (≈) assume the structure as drawn. Where two headings read alike, the source gives them in different places.

Columns and labels:
Wee1 protein = molecular target: T1, Wee1 protein (Homo sapiens, UniProt P30291); test: Binding of compound to Wee1 protein and Tracer 178 by TR-FRET; conditions: inhibitory activity against Wee1 kinase, read-out: IC50 measured value
T1 construct: purchased Thermo Fisher PR7373A
Description: First, solutions of the compounds in different concentration gradients were prepared. […] DMSO was added as a positive control (maximal signal control) and a negative control (minimal signal control) and a final level of 0.25% DMSO was ensured in each reaction well.
WEE1 (Thermo Fisher, Cat #PR7373A) protein in buffer (50 mM Hepes pH 7.5, 10 mM MgCl2, 1 mM EGTA, 0.01% Brij-35) at 15 nM) in different concentrations of compound, and Tracer 178 (Invitrogen, PV5593) and MAb Anti-GST-Eu crypate (Cisbio, 61GSTKLA) were added to 384-well plates (Corning, cat #3574), centrifuged at 1000 rpm for 1 min and the 384-well plates were incubated in a constant temperature shaker for 60 min at 25° C. and 300 rpm. Tracer 178 and MAb Anti-GST-Eu crypate were prepared in buffer (50 mM HEPES pH 7.5, 10 mM MgCl2, 1 mM EGTA, 0.01% Brij-35) with a final reaction concentration of 50 nM for Tracer 178 and a final concentration of 2 nM for MAb Anti-GST-Eu crypate, where the negative control (minimal signal control) used an equal amount of buffer in place of the protein solution.
After incubation, readings were performed using BMG PHERAStar (excitation light at 337 nm and emission light at wavelength values of 620 nm and 665 nm to read the fluorescence signal values). […] The IC50 for inhibition of enzyme activity by the compounds was then calculated using GraphPad Prism 6 and fitted with a log (inhibitor) vs. response-Variable slope mode. The fitting equation was: Y=Bottom+(Top-Bottom)/(1+10^((Log IC50−X)*HillSlope)), where Y represents the percentage of residual enzyme activity known and X represents the known concentration of compound after the logarithm.

H1299 cells = test: Anti-proliferative effect by Cell Titer-Glo, H1299; assay type: cell-based; conditions: Homo sapiens, NCI-H1299, 72 h, read-out: IC50 measured value H1299
Description: (§1) Compound solutions of different concentration gradients were prepared. DMSO was dissolved to a concentration of 10 mM test compound and 10 mM reference compound AZD1775, and the compounds were serially diluted in culture medium for a total of 9 dose points, with 2 parallel replicates set at each concentration. The cell growth group without compound was used as a positive control (maximum signal control) and the medium was used as a negative control (minimum signal control), while ensuring that the final level of DMSO in each reaction well was 0.2%. After removing the medium from the 384-well plate, 25 ul of the configured compound at different concentrations was transferred into the well plate and the compound and cells were incubated in the cell incubator at 37° C. with 5% CO2 for 3 days.
(§2) The 384-well plates were removed from the cell incubator and allowed to equilibrate for 1 h to room temperature. 25 ul of Cell Titer-Glo assay was added to each well, lysed on a shaker for 2 min and then read out (Luminescence) using a BMG PHERAStar after 10 min incubation. Calculate the inhibition rate from the luminescence signal: first calculate the average of the positive control (maximum signal control) and the negative control (minimum signal control).
(§3) [formula] to calculate the rate of inhibition of the cells by different concentrations of the compounds. The IC50 of the compound on cell activity inhibition was calculated by fitting a log(inhibitor) vs. response-Variable slope model to GraphPad Prism 6. The fitted equation was: Y=Bottom+(Top−Bottom)/(1+10^((Log IC50−X)*HillSlope)), where Y represents the rate of inhibition and X represents the concentration of the known compound after Log.

Solubility test = assay type: physicochemical; conditions: aqueous buffer, thermodynamic from solid; buffer solution, shaken at constant temperature 24 h
Description: The compound was placed in a buffer solution and shaken at constant temperature for 24 h. […] Chromatographic conditions: C18 column, mobile phase A: 0.02 M potassium dihydrogen phosphate:acetonitrile=90:10, mobile phase B: acetonitrile; V: 1.0 ml/min, T: 35° C., λ: 210 nm.

[1] = Metabolic stability of liver microsomes in vitro (human); assay type: in vitro ADME; conditions: read-out: Human T1/2/min
Description: (§4) Microsomes were taken out from the −80° C. refrigerator, rapidly melted in a 37° C. water bath and placed on ice until ready to use. The test article was diluted with DMSO to prepare a 10 mM stock solution, and then diluted with acetonitrile to a 0.5 mM secondary stock solution. The microsomes were diluted to 0.75 mg/ml using Buffer C; the secondary stock solution was then added to a final concentration of 1.5 μM of compound as working solution, based on n=2, 5 time points, 350 μL of each compound was prepared and placed on ice prior to use. NADPH was diluted with Buffer C to a working solution of 6 mM for the starter solution. An acetonitrile solution containing an internal standard was prepared as the precipitant, and Verapamil-HCl was chosen as the internal standard at a concentration of 4 ng/ml.
(§5) A round-bottom well plate was taken, noted as the reaction plate, and the prepared working solution for each compound was dispensed into the well plate according to the number of replicates and time points (0 h samples are also added to the reaction plate), 30 μL/well; the plate was incubated at 37° C. for 10 min. A separate plate with pointed bottom wells, noted as a precipitation plate, was added with 135 μL precipitant per well; 0 h samples were transferred to the plate after 10 min incubation and 15 μL of starter solution was added; the plate was placed on ice before centrifugation.
(§6) The diluted starter solution was added in sufficient quantity to the dispensing plate to facilitate the multichannel pipette aspiration operation.
(§7) The reaction was carried out on a warm incubation shaker and 15 μL of starter solution/sample is added to the plate using a multichannel pipette. The reaction was mixed with a slight shake to initiate the reaction, which was accurately timed and recorded using a timer;
(§8) After the reaction time had elapsed, all the solution in the plate was aspirated using the multichannel pipette and added to the precipitation plate to terminate the reaction at that point in time. After all reactions had been terminated, the plates were shaken for ten minutes on a plate shaker at 600 rpm to precipitate the protein. The plate was centrifuged at 4° C. for 15 minutes at maximum rpm. 80 μL of supernatant was taken, 320 μL of pure water was added and mixed for LC-MS analysis.

MIA Paca-2 cells = test: Anti-proliferative effect by Cell Titer-Glo, MIA Paca-2; assay type: cell-based; conditions: Homo sapiens, read-out: IC50 measured value MIA Paca-2
Description: as §1, §2, §3

[2] = Metabolic stability of liver microsomes in vitro (mouse); assay type: in vitro ADME; conditions: read-out: Mouse T1/2/min
Description: as §4, §5, §6, §7, §8

[3] = Compound pharmacokinetics in mice; assay type: in vivo; conditions: male ICR mice, oral gavage 10 mg/kg, plasma; for Cmax / AUC(0-inf) / half-life: mouse; for AUC(0-inf): read-out: AUCinf—Pred; for half-life: read-out: T½ (converted)
Description: To investigate the pharmacokinetic properties of the compound in mice, six male ICR mice were given the compound by oral gavage (10 mg/kg) at the corresponding dose, and each route of administration was divided into two groups: group A mice had anticoagulated whole blood collected at 5 min, 30 min, 2 h and 8 h after administration, while group B mice had anticoagulated whole blood collected at 15 min, 1 h, 4 h and 24 h after administration, isolated plasma;
The plasma concentrations of the compounds were determined by LC-MS using a standard curve calibration method. Plasma concentration-time data were fitted to pharmacokinetic parameters using Winnolin 5.2 software.

[4] = Membrane permeability study (Caco-2); assay type: in vitro ADME; conditions: human; for efflux ratio at 90 min, 10 µM: Caco-2, pH 7.4, read-out: Efflux Ration; for Papp A→B at 90 min, 10 µM / Papp B→A at 90 min, 10 µM: pH 7.4, Caco-2, 10 μM; for Papp A→B at 90 min, 10 µM: A to B; for Papp B→A at 90 min, 10 µM: B to A
Description: Caco-2 cells were purchased from the […] (Rockville, MD). The cell culture medium was modified Eagle's medium (MEM) containing 10% inactivated fetal bovine serum and 1% non-essential amino acids. Cells were inoculated on polycarbonate filter membranes (Cat no. 3396) and incubated at 37° C. in a 5% CO2 incubator.
The cells were incubated for 21-28 days after inoculation for transport experiments and the apparent permeability (Papp) of Lucifer Yellow was used to characterize and verify the compactness of the cell monolayer. A stock solution of 10 mM was prepared by dissolving the compound in DMSO and diluted using Hanks Balanced Salt Solution (HBSS, Invitrogen, Cat #14025-092) containing 25 mM HEPES (pH 7.4) to obtain the working solution. A 10 μM working solution of the compound to be tested was added to the apical side and basolateral side of Caco-2 and incubated at 37° C. for 90 min. After the incubation, dilute the samples on the apical side and basolateral side, and the concentrations of compounds on the apical and basolateral sides were detected by LC-MS/MS, and the concentrations of the compounds were quantified by standard curve.

[5] = H1299 cells, 3 days, Cell Titer-Glo
[6] = 72 h, MIA Paca-2 cells, 3 days, Cell Titer-Glo

T1 sequence (P30291 whole entry): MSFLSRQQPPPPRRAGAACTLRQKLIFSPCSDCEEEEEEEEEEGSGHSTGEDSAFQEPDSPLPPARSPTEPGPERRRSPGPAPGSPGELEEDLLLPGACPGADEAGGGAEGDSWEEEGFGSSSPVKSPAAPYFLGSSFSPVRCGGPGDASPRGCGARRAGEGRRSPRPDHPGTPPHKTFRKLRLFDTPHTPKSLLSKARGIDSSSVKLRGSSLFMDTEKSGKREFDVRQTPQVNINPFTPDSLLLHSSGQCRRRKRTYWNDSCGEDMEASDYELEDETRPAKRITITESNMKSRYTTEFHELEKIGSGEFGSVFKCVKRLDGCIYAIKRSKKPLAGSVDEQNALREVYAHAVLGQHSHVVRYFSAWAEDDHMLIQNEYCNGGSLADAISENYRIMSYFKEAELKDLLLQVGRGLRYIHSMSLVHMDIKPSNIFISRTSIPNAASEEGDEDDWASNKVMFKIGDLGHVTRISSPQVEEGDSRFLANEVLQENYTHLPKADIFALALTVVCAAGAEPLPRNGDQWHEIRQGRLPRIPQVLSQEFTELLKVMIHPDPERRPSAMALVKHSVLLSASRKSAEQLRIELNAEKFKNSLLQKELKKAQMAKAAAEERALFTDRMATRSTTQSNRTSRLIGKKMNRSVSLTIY

Row | IC50 (Wee1 protein) [nM] | IC50 (H1299 cells; [5]) [nM] | IC50 (MIA Paca-2 cells; [6]) [nM] | Structure (SMILES) | IC50 (H1299 cells) [nM] | other results
1 | 1 to 10 | 1000 to 5000 | 100 to 1000 | CN1CCC(c2ccc(Nc3ncc4cnn(-c5cccc(N=S(C)(C)=O)n5)c4n3)cc2)CC1 [Compound 18] | – | half-life at 1 µM [1]: > 120 min; half-life at 1 µM [2]: > 120 min
2 | 100 to 1000 | 5000 to 20000 | 1000 to 5000 | CN1CCN(c2ccc(Nc3ncc4cnn(-c5ccnc(N=S(C)(C)=O)c5)c4n3)cc2)CC1 [Compound 28] | – | Cl_pred [3]: 230 mL/min/kg; Cmax [3]: 337 ng/mL; AUC(0-inf) [3]: 743 ng·h/mL; half-life [3]: 107 min
3 | 10 to 100 | 100 to 1000 | 100 to 1000 | CN1CCN(c2ccc(Nc3ncc4cnn(-c5ccc6c(c5)C(C)(O)CO6)c4n3)cc2)CC1 (stereo not drawn) [Compound 40] | – | efflux ratio at 90 min, 10 µM [4]: 0.89; Papp A→B at 90 min, 10 µM [4]: 18.6 ×10⁻⁶ cm/s; Papp B→A at 90 min, 10 µM [4]: 16.6 ×10⁻⁶ cm/s; Cl_pred [3]: 405 mL/min/kg; Cmax [3]: 377 ng/mL; AUC(0-inf) [3]: 493 ng·h/mL; half-life [3]: 42 min; half-life at 1 µM [2]: 20.4 min
4 | 10 to 100 | 100 to 1000 | 100 to 1000 | CCn1cnc2ccc(-n3ncc4cnc(Nc5ccc(N6CCN(C)CC6)cc5)nc43)cc21 [Compound 45] | – | efflux ratio at 90 min, 10 µM [4]: 1.79; Papp A→B at 90 min, 10 µM [4]: 4.09 ×10⁻⁶ cm/s; Papp B→A at 90 min, 10 µM [4]: 7.34 ×10⁻⁶ cm/s; half-life at 1 µM [2]: 10.3 min
5 | 100 to 1000 | 1000 to 5000 | 100 to 1000 | CCC1(O)CCc2ccc(-n3ncc4cnc(Nc5ccc(N6CCN(C)CC6)cc5)nc43)nc21 (stereo not drawn) [Compound 57] | – | –
6 | 10 to 100 | < 100 | 100 to 1000 | Cc1nc2ccc(-n3ncc4cnc(Nc5ccc(N6CCN(C)CC6)cc5)nc43)cc2n1C [Compound 58] | – | –
7 | 100 to 1000 | 5000 to 20000 | 1000 to 5000 | CN1CCN(c2ccc(Nc3ncc4cnn(-c5ccc6nncn6c5)c4n3)cc2)CC1 [Compound 62] | – | –

Row | Structure (SMILES) | IC50 (Wee1 protein) [nM] | IC50 (H1299 cells; [5]) [nM] | IC50 (MIA Paca-2 cells; [6]) [nM] | IC50 (H1299 cells) [nM] | other results
8 | CN1CCN(c2ccc(Nc3ncc4cnn(-c5cccc(C6(C#N)CC6)n5)c4n3)cc2)CC1 [Compound 3] | 10 to 100 | – | – | 1000 to 5000 | solubility at 24 h (Solubility test): 60 µg/mL (≈ 133 µM)
9 | CCN1C(=O)COc2ccc(-n3ncc4cnc(Nc5ccc(N6CCN(C)CC6)cc5)nc43)cc21 [Compound 59] | 10 to 100 | – | – | 100 to 1000 | IC50 (MIA Paca-2 cells; MIA PaCa-2, 72 h): 100 to 1000 nM
10 | CCn1ncc2ccc(-n3ncc4cnc(Nc5ccc(N6CCN(C)CC6)cc5)nc43)nc21 [Compound 60] | 10 to 100 | – | – | 1000 to 5000 | IC50 (MIA Paca-2 cells; MIA PaCa-2, 72 h): 100 to 1000 nM
11 | CCN1C(=O)C2(CC2)c2ccc(-n3ncc4cnc(Nc5ccc(N6CCN(C)CC6)cc5)nc43)cc21 [Compound 61] | 100 to 1000 | – | – | 5000 to 20000 | IC50 (MIA Paca-2 cells; MIA PaCa-2, 72 h): 1000 to 5000 nM
